# Assay results taken from patent US20240217990A1 (Gilead Sciences, Inc., priority 2021, published 2024).
# Legend:
# TLR7 = biological target: T1, TLR7 (Homo sapiens, UniProt Q9NYK1); experiment: TLR7 human PBMC cell-based assay (antagonist, GS-986 stimulated cytokine release); conditions: human PBMCs; TLR7 agonist GS-986 400 nM, 6 hours; cytokines (IL-6 and IFNα) in supernatant; read-out: TLR-7 EC50
# T1 construct: Human peripheral blood mononuclear cells (PBMCs) consist of lymphocytes, monocytes and dendritic cells that express TLR7, TLR8 and TLR9; endogenous in cells; host or cells: cryopreserved human PBMCs from healthy donors
# T1 sequence (Q9NYK1 27-1049): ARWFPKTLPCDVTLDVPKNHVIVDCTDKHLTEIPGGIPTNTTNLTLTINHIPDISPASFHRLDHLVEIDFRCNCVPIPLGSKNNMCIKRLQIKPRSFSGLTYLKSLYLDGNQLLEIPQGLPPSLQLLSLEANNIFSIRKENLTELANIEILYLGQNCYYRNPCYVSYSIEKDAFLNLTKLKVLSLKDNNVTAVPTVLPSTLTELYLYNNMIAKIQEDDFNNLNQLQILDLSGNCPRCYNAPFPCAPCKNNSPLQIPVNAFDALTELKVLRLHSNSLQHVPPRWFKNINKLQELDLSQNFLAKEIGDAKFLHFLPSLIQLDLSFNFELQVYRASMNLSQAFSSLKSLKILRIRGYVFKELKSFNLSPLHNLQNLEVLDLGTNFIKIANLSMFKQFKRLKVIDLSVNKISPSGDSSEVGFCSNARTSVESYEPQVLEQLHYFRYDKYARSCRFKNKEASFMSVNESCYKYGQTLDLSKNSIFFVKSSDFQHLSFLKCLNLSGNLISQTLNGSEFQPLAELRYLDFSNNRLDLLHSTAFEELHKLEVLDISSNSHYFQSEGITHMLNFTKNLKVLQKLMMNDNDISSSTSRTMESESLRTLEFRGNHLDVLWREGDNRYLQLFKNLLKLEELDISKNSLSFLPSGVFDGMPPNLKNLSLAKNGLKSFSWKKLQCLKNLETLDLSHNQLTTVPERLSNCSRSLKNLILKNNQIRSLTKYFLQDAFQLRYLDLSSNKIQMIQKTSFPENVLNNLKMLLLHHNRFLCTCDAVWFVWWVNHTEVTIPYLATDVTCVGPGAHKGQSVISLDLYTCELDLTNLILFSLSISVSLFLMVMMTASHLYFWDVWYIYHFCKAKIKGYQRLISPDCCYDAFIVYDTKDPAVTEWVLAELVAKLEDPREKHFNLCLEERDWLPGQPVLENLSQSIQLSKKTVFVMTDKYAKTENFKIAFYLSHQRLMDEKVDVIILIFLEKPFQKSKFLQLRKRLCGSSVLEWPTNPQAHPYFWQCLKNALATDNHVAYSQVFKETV
# Outline: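 EC50 derived by sigmoidal fitting of IL-6 and IFNα levels, quantified by electrochemiluminescence in supernatants of human PBMCs given 400 nM GS-986 for 6 h. Cells (100,000/well in RPMI-1640, 10% FBS) had received test antagonist 1 h beforehand, 10 doses in quadruplicate, at 37 °C.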
# TLR8 = biological target: T2, TLR8 (Homo sapiens, UniProt Q9NR97); experiment: TLR8 human PBMC cell-based assay (antagonist, Compound A stimulated cytokine release); conditions: human PBMCs; TLR8 agonist Compound A 800 nM, 6 hours; cytokines (TNFa and IL 12p40) in supernatant; read-out: TLR-8 EC50
# T2 construct: Human peripheral blood mononuclear cells (PBMCs) consist of lymphocytes, monocytes and dendritic cells that express TLR7, TLR8 and TLR9; endogenous in cells; host or cells: cryopreserved human PBMCs from healthy donors
# T2 sequence (Q9NR97 27-1041): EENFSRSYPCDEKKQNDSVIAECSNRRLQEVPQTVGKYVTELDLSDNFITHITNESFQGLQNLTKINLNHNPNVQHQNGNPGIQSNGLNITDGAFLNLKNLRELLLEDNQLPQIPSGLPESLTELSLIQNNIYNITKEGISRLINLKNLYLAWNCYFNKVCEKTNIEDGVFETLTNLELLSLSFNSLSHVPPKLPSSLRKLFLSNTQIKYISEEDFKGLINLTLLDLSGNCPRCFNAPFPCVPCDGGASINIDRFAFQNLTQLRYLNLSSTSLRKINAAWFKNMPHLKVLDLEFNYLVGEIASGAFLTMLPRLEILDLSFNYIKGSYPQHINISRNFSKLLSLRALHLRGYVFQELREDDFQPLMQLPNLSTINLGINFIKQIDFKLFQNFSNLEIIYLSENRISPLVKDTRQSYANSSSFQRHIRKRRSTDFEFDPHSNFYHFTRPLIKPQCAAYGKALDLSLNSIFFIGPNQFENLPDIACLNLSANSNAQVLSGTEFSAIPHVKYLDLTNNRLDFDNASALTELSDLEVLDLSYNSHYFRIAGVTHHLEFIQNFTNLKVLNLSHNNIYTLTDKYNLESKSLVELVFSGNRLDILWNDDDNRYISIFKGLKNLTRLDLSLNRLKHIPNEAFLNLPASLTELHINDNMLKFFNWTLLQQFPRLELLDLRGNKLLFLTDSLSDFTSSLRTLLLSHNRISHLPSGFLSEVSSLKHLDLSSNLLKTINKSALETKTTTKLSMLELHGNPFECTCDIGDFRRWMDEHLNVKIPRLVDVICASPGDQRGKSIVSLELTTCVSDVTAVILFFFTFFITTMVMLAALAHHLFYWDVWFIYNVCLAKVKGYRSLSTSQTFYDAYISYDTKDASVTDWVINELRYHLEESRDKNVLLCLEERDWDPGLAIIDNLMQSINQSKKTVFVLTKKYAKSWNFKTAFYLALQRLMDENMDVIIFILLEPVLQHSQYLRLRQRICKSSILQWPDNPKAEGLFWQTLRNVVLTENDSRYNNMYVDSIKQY
# Outline: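 Cryopreserved donor PBMCs (100,000/well, RPMI + 10% FBS) were preincubated 1 h with antagonist (10-point dose response, quadruplicate), then stimulated with Compound A (800 nM final) for 6 h at 37 °C. TNFa and IL-12p40 in supernatants were measured by electrochemiluminescence; sigmoidal fits gave EC50.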
smiles,measurement,setting,value
"Cc1cc(-c2[nH]c3cc(C4CCN(CCS(C)(=O)=O)CC4)sc3c2C(C)C)cn2ncnc12 [Example 255, 6-isopropyl-5-(8-methyl-[1,2,4]triazolo[1,5-a]pyridin-6-yl)-2-(1-(2-(methylsulfonyl)ethyl)piperidin-4-yl)-4H-thieno[3,2-b]pyrrole]",EC50,TLR7,4.1 nM
same,EC50,TLR8,3.2 nM
"Cc1cc(-c2[nH]c3cc(C4CCC(N5CCC(F)C5)CC4)sc3c2C(C)C)cn2ncnc12 (centres unmarked) [Example 256, 2-(4-(3-fluoropyrrolidin-1-yl)cyclohexyl)-6-isopropyl-5-(8-methyl-[1,2,4]triazolo[1,5-a]pyridin-6-yl)-4H-thieno[3,2-b]pyrrole]",EC50,TLR7,0.2 nM
same,EC50,TLR8,1.8 nM
Cc1cc(-c2[nH]c3cc(C4CCC(N5CCC(O)C5)CC4)sc3c2C(C)C)cn2ncnc12 (centres unmarked) [Example 257],EC50,TLR7,0.4 nM
same,EC50,TLR8,9.6 nM
Cc1cc(-c2[nH]c3cc(C4CCC(N5CCC(OC(F)F)C5)CC4)sc3c2C(C)C)cn2ncnc12 (centres unmarked) [Example 258],EC50,TLR7,2.3 nM
same,EC50,TLR8,11.9 nM
Cc1cc(-c2[nH]c3cc(C4CCC(N5CC6(COC6)C5)CC4)sc3c2C(C)C)cn2ncnc12 (centres unmarked) [Example 260],EC50,TLR7,0.3 nM
same,EC50,TLR8,2 nM
Cc1cc(-c2[nH]c3cc(C4CCC(NC5CC6CC5O6)CC4)sc3c2C(C)C)cn2ncnc12 (centres unmarked) [Example 261],EC50,TLR7,2.2 nM
same,EC50,TLR8,9.7 nM
"Cc1cc(-c2[nH]c3cc(-c4cn(C5CCNCC5)nn4)sc3c2C(C)C)cn2ncnc12 [Example 263, 6-isopropyl-5-(8-methyl-[1,2,4]triazolo[1,5-a]pyridin-6-yl)-2-(1-(piperidin-4-yl)-1H-1,2,3-triazol-4-yl)-4H-thieno[3,2-b]pyrrole]",EC50,TLR7,0.3 nM
same,EC50,TLR8,6 nM
"Cc1cc(-c2[nH]c3cc(-c4cn(C5CCN(CCO)CC5)nn4)sc3c2C(C)C)cn2ncnc12 [Example 264, 2-(4-(4-(6-isopropyl-5-(8-methyl-[1,2,4]triazolo[1,5-a]pyridin-6-yl)-4H-thieno[3,2-b]pyrrol-2-yl)-1H-1,2,3-triazol-1-yl)piperidin-1-yl)ethan-1-ol]",EC50,TLR7,1.8 nM
same,EC50,TLR8,1.6 nM
"Cc1cc(-c2[nH]c3cc(CN4CCN(C)CC4)sc3c2C(C)C)cn2ncnc12 [Example 265, 6-isopropyl-5-(8-methyl-[1,2,4]triazolo[1,5-a]pyridin-6-yl)-2-((4-methylpiperazin-1-yl)methyl)-4H-thieno[3,2-b]pyrrole]",EC50,TLR7,1.7 nM
same,EC50,TLR8,8.2 nM
Cc1c(-c2[nH]c3cc(CN4CCC(C)(O)CC4)sc3c2C(C)C)cn2ncnc2c1C [Example 266],EC50,TLR7,2.3 nM
same,EC50,TLR8,1.2 nM
Cc1c(-c2[nH]c3cc(CN4CCC(O)(C(F)(F)F)CC4)sc3c2C(C)C)cn2ncnc2c1C [Example 267],EC50,TLR7,37.5 nM
same,EC50,TLR8,4.8 nM
"Cc1cc(-c2[nH]c3cc(C(=O)N(C)C4CCN(CCC(F)(F)F)CC4)sc3c2C(C)C)cn2ncnc12 [Example 269, 6-isopropyl-N-methyl-5-(8-methyl-[1,2,4]triazolo[1,5-a]pyridin-6-yl)-N-[1-(3,3,3-trifluoropropyl)-4-piperidyl]-4H-thieno[3,2-b]pyrrole-2-carboxamide]",EC50,TLR7,26.5 nM
same,EC50,TLR8,14.7 nM
"Cc1cc(-c2[nH]c3cc(CN4CCC(C)(O)CC4)sc3c2C(C)C)cn2ncnc12 [Example 270, 1-((6-Isopropyl-5-(8-methyl-[1,2,4]triazolo[1,5-a]pyridin-6-yl)-4H-thieno[3,2-b]pyrrol-2-yl)methyl)-4-methylpiperidin-4-ol]",EC50,TLR7,8.2 nM
same,EC50,TLR8,3 nM
Cc1cc(-c2[nH]c3cc(CN4CC5(C4)CS(=O)(=O)C5)sc3c2C(C)C)cn2ncnc12 [Example 271],EC50,TLR7,35 nM
same,EC50,TLR8,51.2 nM
"Cc1cc(-c2[nH]c3cc(-c4ccc(N5CCN(C)CC5)c(F)c4)sc3c2C(C)C)cn2ncnc12 [Example 272, 2-(3-Fluoro-4-(4-methylpiperazin-1-yl)phenyl)-6-isopropyl-5-(8-methyl-[1,2,4]triazolo[1,5-a]pyridin-6-yl)-4F1-thieno[3,2-b]pyrrole]",EC50,TLR7,1.8 nM
same,EC50,TLR8,4.9 nM
"Cc1c(-c2[nH]c3cc(C(=O)N(C)[C@@H]4CNC[C@H](C(F)(F)F)C4)sc3c2C(C)C)cn2ncnc2c1C [Example 273, 5-(7,8-dimethyl-[1,2,4]triazolo[1,5-a]pyridin-6-yl)-6-isopropyl-N-methyl-N-((3S,5R)-5-(trifluoromethyl)piperidin-3-yl)-4H-thieno[3,2-b]pyrrole-2-carboxamide]",EC50,TLR7,9.8 nM
same,EC50,TLR8,9.7 nM
"CCN1C[C@@H](N(C)C(=O)c2cc3[nH]c(-c4cn5ncnc5c(C)c4C)c(C(C)C)c3s2)C[C@@H](C(F)(F)F)C1 [Example 274, 5-(7,8-dimethyl-[1,2,4]triazolo[1,5-a]pyridin-6-yl)-N-((3S,5R)-1-ethyl-5-(trifluoromethyl)piperidin-3-yl)-6-isopropyl-N-methyl-4H-thieno[3,2-b]pyrrole-2-carboxamide]",EC50,TLR7,360 nM
same,EC50,TLR8,70.7 nM
Cc1cc(-c2[nH]c3cc(C(=O)N(C)[C@H]4CNC[C@@H](C(F)(F)F)C4)sc3c2C(C)C)cn2ncnc12 [Example 275],EC50,TLR7,9 nM
same,EC50,TLR8,35.6 nM
Cc1cc(-c2[nH]c3cc(C(=O)N(C)[C@@H]4CNC[C@H](C(F)(F)F)C4)sc3c2C(C)C)cn2ncnc12 [Example 276],EC50,TLR7,2.7 nM
same,EC50,TLR8,16.3 nM
"Cc1cc(-c2[nH]c3cc(C(=O)C4CCNCC4)sc3c2C(C)C)cn2ncnc12 [Example 277, (6-isopropyl-5-(8-methyl-[1,2,4]triazolo[1,5-a]pyridin-6-yl)-4H-thieno[3,2-b]pyrrol-2-yl)(piperidin-4-yl)methanone]",EC50,TLR7,0.4 nM
same,EC50,TLR8,6.1 nM
Cc1c(-c2[nH]c3cc(C4CCN(CC(N)=O)CC4)sc3c2C(C)C)cn2ncnc2c1C [Example 279],EC50,TLR7,2.78 nM
same,EC50,TLR8,0.78 nM
Cc1cc(-c2[nH]c3cc(C4CCC5(CCN(CC(N)=O)C5)C4)sc3c2C(C)C)cn2ncnc12 (centres unmarked) [Example 280],EC50,TLR7,2.89 nM
same,EC50,TLR8,7.51 nM
Cc1cc(-c2[nH]c3cc(C4CCC5CNCCC5C4)sc3c2C(C)C)cn2ncnc12 (centres unmarked) [Example 281],EC50,TLR7,0.87 nM
same,EC50,TLR8,4.48 nM
Cc1cc(-c2[nH]c3cc(C4CC5CCC4CN5)sc3c2C(C)C)cn2ncnc12 (centres unmarked) [Example 282],EC50,TLR7,1.32 nM
same,EC50,TLR8,11.7 nM
Cc1nc2c(C)cc(-c3[nH]c4cc(C5CCN(CC(N)=O)CC5)sc4c3C(C)C)cn2n1 [Example 283],EC50,TLR7,1.37 nM
same,EC50,TLR8,3.47 nM
